≈ marks a conversion by molar mass, not a printed value. Like-named read-outs stand apart in the source and are kept apart here.
Tests used:
tubulin = settings: J. Med. Chem. 1991, 34, 2579; cited from earlier work
[1] = test system: KB (human nasopharynx carcinoma); experiment: In vitro anticancer effect (MTT), KB cell line; format: cell-based; settings: KB cells, 72 hours, read-out: IC50 (50% cell growth-inhibitory concentration)
Method: (§1) In Vitro anticancer effects on KB (human nasopharynx carcinoma), Colon 38 (mouse colon cancer), and WiDr (human colorectal cancer) cell lines
(§2) Each of KB, Colon 38, and WiDr cell lines were respectively cultured using 10% fetal calf serum-supplemented D-MEM medium (Nissui Pharmaceutical). Each monolayer of cells was exfoliated with a 50:50 (v/v) mixture of 0.25% trypsin and 0.02% ethylenediaminetetracetic acid and after inactivation of trypsin, the cells were collected by centrifuging at 800 rpm for 3 minutes and suspended in the same medium as above. Using a hemocytometer, the number of the cells in the suspension were counted. The suspension was diluted with the medium to 5×10^4 cells/ml and distributed to a 96-well flat-bottomed plate, 100 μl per well.
(§3) The test drug was first dissolved in dimethyl sulfoxide at a concentration of 2 mg/ml and diluted with the above medium to 20 μg/ml. Using this solution for the highest concentration, a doubling dilution series was prepared and 100 μl of each dilution was added to the above cell suspension.
(§4) The plate was then incubated under 5% CO2 -air at 37° C. for 72 hours. Then, a 5 mg/ml solution of MTT [3-(4,5-dimethylthiazol-2-yl)-2,5-diphenyltetrazolium bromide] was added to the plate, 30 μl per well and the reaction was carried out under 5% CO2 -air at 37° C. for 4 hours. After the reaction, the solution in each well was aspirated off and 100 μl/well of dimethyl sulfoxide was added. After 5 minutes of shaking, the absorbance at 540 nm was measured with a Multiscan (Titertek) and the 50% cell growth-inhibitory concentration (IC50) was calculated.

[2] = test system: Colon 38 (mouse colon cancer); experiment: In vitro anticancer effect (MTT), Colon 38 cell line; format: cell-based; settings: Colon 38 cells, 72 hours, read-out: IC50 (50% cell growth-inhibitory concentration)
Method: as §1, §2, §3, §4

[3] = test system: WiDr (human colorectal cancer); experiment: In vitro anticancer effect (MTT), WiDr cell line; format: cell-based; settings: WiDr cells, 72 hours, read-out: IC50 (50% cell growth-inhibitory concentration)
Method: as §1, §2, §3, §4

microtubule protein = experiment: Microtubule polymerization-inhibitory activity; format: biochemical; settings: porcine brain microtubule protein, 37° C., pH 6.8, 350 nm; read-out: 50% inhibitory concentration against microtubule protein polymerization
Method: Microtubule polymerization-inhibitory activity Microtubule polymerization-inhibitory activity
A microtubule protein (a mixed solution of microtubule protein and microtubule-bound protein) was purified from a crude porcine brain extract according to the method of Williams et al. [Method in Enzymology, 85, 36, 1982] to isolate and the microtubule polymerization inhibitory activity of the compound of the invention was studied. The microtubule protein solution was diluted to 4 mg/ml as purified microtubule protein with GTP (guanosine-5'-triphosphate)-added reaction buffer (pH 6.8) {100 mM MES [2-(N-morpholinoethanesulfonic acid], 0.5 mM MgCl2 -1 mM EGTA (ethylene glycol bis(β-aminoethyl ether)-N,N,N',N'-tetracetic acid), 1 mM GTP} under ice-cooling and after degassing in ice, the test drug was added. Using a spectrophotometer maintained at 37° C., the absorbance of the system at 350 nm was measured at 2-minute intervals for 30 minutes to construct a polymerization curve and the concentration corresponding to 50% inhibition of microtubule protein polymerization was calculated. As the test drug, the compound of Example 3A was used.

[4] = test system: WiDr tumor cells transplanted in nude mice; experiment: Growth inhibitory activity against WiDr tumor cells transplanted in nude mice; format: in vivo; settings: oral; for Growth inhibition rate at day 16 after initiation of administration: once daily
Text: Growth inhibitory activity against WiDr tumor cells transplanted in nude mice The tumor subcutaneously subcultured in nude mice (BALB/c nu/nu, male) aged 5-7 weeks were excised. After removal of the skin and connective tissue around the tumor, the tumor mass was split to remove the central necrotic tissue and, then, cut into cubes with a 2 mm side. One cube was loaded into a grafting needle and transplanted subcutaneously in the right thoracic region of the nude mouse. The major and minor diameters of the tumor were measured with calipers and the tumor volume was calculated by means of Equation 1. Starting when the volume had reached about 100 mm^3, the mice were divided into 6 individuals per group and the test drug suspended in 0.5% methylcellulose solution was administered orally by gastric gavage once daily.
Volume=1/2×major diameter×(minor diameter)^2Equation 1
The tumor volume was determined by the above method at predetermined intervals. From the tumor volume thus calculated, the growth rate was calculated by means of Equation 2. Then, using Equation 3, the growth inhibition rate in each drug treatment group relative to the control group was calculated.
Growth rate=tumor volume at day n/tumor volume at initiation of administration Equation 2
Growth inhibition rate (%)=(1-growth rate in drug treatment group/growth rate in control group)×100 Equation 3
As the test compound, the compound of Example 3A was used.

[5] = test system: Colon-26 (mouse colon cancer) cells transplanted in mice; format: in vivo, mouse (BALB/c, male); settings: oral, once daily for 8 days
Method: Anticancer activity against Colon-26 (mouse colon cancer) cells transplanted in mice
Using an injection syringe, Colon-26 cells cultured in vitro were transplanted subcutaneously in a dose of 5×10^5 /animal in the right thoracic region of BALB/c mice (5 weeks old, male). As in Test Example 3, the mice were divided into groups of 6 when the tumor volume had reached about 150 mm^3. Starting the following day, the test drug suspended in 0.5% methylcellulose solution was administered orally by gastric gavage once daily for 8 days. The tumor volume was measured at a predetermined interval by the same method as in Test Example 3 and the tumor growth inhibition rate in each drug treatment group relative to the control group was calculated. As the test compound, the compound of Example 3A was used.

[6] = test system: mouse monocytic leukemia P-388 cell line; experiment: In vivo anticancer activity against mouse monocytic leukemia P-388 cell line; set-up: species or system mouse (CDF1); settings: oral, twice (following day and after 5 days)
Method: In vivo anticancer activity against mouse monocytic leukemia P-388 cell line
A suspension of tumor cells was transplanted intraperitoneally in CDF1 mice in a dose of 10^6 cells/animal. On the following dav and after 5 days, or twice, the test drug suspended in 0.5% methylcellulose solution was administered orally. The experiment was performed in 8-12 mice for each control group and 6 mice for each drug treatment group.
For evaluation, the median survival time in days was determined for each drug treatment group (T) and control group (C) and T/C (%) was calculated.

[7] = Acute toxicity, single oral administration; settings: mouse, in vivo, mortality after 2 weeks, probit method
Method: Male 5-week-old CDF1 mice were used. After the compound of Example 3B or 34 was orally administered once, the mortality rate was investigated after 2 weeks and the LD50 value was calculated by the probit method. […] The high safety of the compound of the invention is obvious.

IC50 [1] | IC50 [2] | IC50 [3] | SMILES | T/C (median survival time, treated/control) ([6]; 25 mg/kg) | T/C (median survival time, treated/control) ([6]; 50 mg/kg) | T/C (median survival time, treated/control) ([6]; 100 mg/kg) | T/C (median survival time, treated/control) ([6]; 200 mg/kg) | other results
 |  |  | COc1ccc(/C=C\c2cc(OC)c(OC)c(OC)c2)cc1 [(Z)-3,4,5-trimethoxy-4'-methoxystilbene] |  |  |  |  | tubulin polymerization-inhibitory activity (tubulin): have tubulin polymerization-inhibitory activity
0.44 µg/mL (≈ 1.2 µM) | 0.75 µg/mL (≈ 2.05 µM) | 0.45 µg/mL (≈ 1.23 µM) | COc1ccc(S(=O)(=O)Nc2ncccc2/C=C/c2ccccc2)cc1 [Example 1, (E)-2-[[(p-Methoxyphenyl)sulfonyl]amino]-3-(2-phenyl-ethenyl)pyridine] |  |  |  |  | 
4.86 µg/mL (≈ 13.3 µM) | 6.48 µg/mL (≈ 17.7 µM) | 4.81 µg/mL (≈ 13.1 µM) | COc1ccc(S(=O)(=O)Nc2ccccc2/C=C\c2cccnc2)cc1 [Example 2 (cis), 3-[2-[2-[[(p-Methoxyphenyl)sulfonyl]amino]phenyl]ethenyl]pyridine] |  |  |  |  | 
0.1 µg/mL (≈ 0.273 µM) | 0.15 µg/mL (≈ 0.409 µM) | 0.09 µg/mL (≈ 0.246 µM) | COc1ccc(S(=O)(=O)Nc2ccccc2/C=C/c2cccnc2)cc1 [Example 2 (trans), 3-[2-[2-[[(p-Methoxyphenyl)sulfonyl]amino]phenyl]ethenyl]pyridine] |  |  |  |  | 
 |  |  | COc1ccc(S(=O)(=O)Nc2ccccc2/C=C/c2ccncc2)cc1.Cl [Example 3B, (E)-4-[2-[2-[[(p-Methoxyphenyl)sulfonyl]amino]phenyl]ethenyl]pyridine Hydrochloride] | 116% | 126% | 168% | 221% | LD50 at 336 h [7]: 510 mg/kg
0.12 µg/mL (≈ 0.327 µM) | 0.16 µg/mL (≈ 0.437 µM) | 0.16 µg/mL (≈ 0.437 µM) | COc1ccc(S(=O)(=O)Nc2ccccc2/C=C/c2ccccn2)cc1 [Example 4, (E)-2-[2-[2-[[(p-Methoxyphenyl)sulfonyl]amino]phenyl]ethenyl]pyridine] |  |  |  |  | 
 |  |  | COc1ccc(S(=O)(=O)Nc2ccccc2/C=C/c2cc[n+]([O-])cc2)cc1 [Example 20, (E)-4-[2-[2-[[(p-Methoxyphenyl)sulfonyl]amino]phenyl]ethenyl]pyridine 1-oxide] | 135% | 115% | 180% | 195% | 
 |  |  | COc1ccc(S(=O)(=O)N(CCO)c2ccccc2/C=C/c2ccncc2)cc1 [Example 34, (E)-4-[2-[2-[N-(2-Hydroxyethyl)-N-[(p-methoxyphenyl)sulfonyl]amino]phenyl]ethenyl]pyridine] | 105% | 124% | 167% | 210% | LD50 at 336 h [7]: 754 mg/kg
 |  |  | COc1ccc(S(=O)(=O)N(CCO)c2ccccc2/C=C/c2cc[n+]([O-])cc2)cc1 [Example 49, (E)-4-[2-[2-[N-(2-Hydroxyethyl)-N-[(p-methoxyphenyl)sulfonyl]amino]phenyl]ethenyl]pyridine 1-oxide] |  |  | 185% | 220% | 
 |  |  | COc1ccc(S(=O)(=O)N(C(C)=O)c2ccccc2/C=C/c2cc[n+]([O-])cc2)cc1 [Example 57, (E)-4-[2-[2-[N-Acetyl-N-[(p-methoxyphenyl)sulfonyl]amino]phenyl]ethenyl]pyridine 1-oxide] | 115% | 160% | 215% | 250% | 

SMILES | IC50 [1] | IC50 [2] | IC50 [3] | T/C (median survival time, treated/control) ([6]; 25 mg/kg) | T/C (median survival time, treated/control) ([6]; 50 mg/kg) | T/C (median survival time, treated/control) ([6]; 100 mg/kg) | T/C (median survival time, treated/control) ([6]; 200 mg/kg) | other results
COc1ccc(S(=O)(=O)Nc2ccccc2/C=C/c2ccncc2)cc1 [Example 3A, (E)-4-[2-[2-[[(p-Methoxyphenyl)sulfonyl]amino]phenyl]ethenyl]pyridine] | 0.0026 µg/mL (≈ 0.0071 µM) | 0.0031 µg/mL (≈ 0.00846 µM) | 0.0025 µg/mL (≈ 0.00682 µM) |  |  |  |  | IC50 (microtubule protein): 11.2 µM; Growth inhibition rate at day 16 after initiation of administration ([4]; 10 mg/kg/day): 16.4%; Growth inhibition rate at day 16 after initiation of administration ([4]; 30 mg/kg/day): 57.0%; death by the end of the administration period ([4]; 100 mg/kg, once daily for 14 days): no death occurred; Growth inhibition rate at day 16 after initiation of administration ([4]; 100 mg/kg/day): 81.7%; Growth inhibition rate at day 13 after initiation of administration ([5]; 25 mg/kg/day): 44.8%; Growth inhibition rate at day 13 after initiation of administration ([5]; 50 mg/kg/day): 95.3%
